Counter-ions that a name gives are not always drawn.
What was measured:
Assay type in all cases: physicochemical
[1] = solution stability in 1-propanol:water (80:20% v/v) at 50° C. (Example 8)
Protocol: Example 8-Solution Stability of Compound 1 di(hydrogen sulfate): As per Table 44, weighed amounts (mg) of Compound 1 (free base) were added to 5×1.5 mL screw cap vials. Sulfuric acid equivalents were added to each vial as solutions in volumes of 1-propanol: water (80:20% v/v) as further set forth in Table 44. Salt formation occurred in situ. The target free base concentration was about 186 mg/mL. The solutions were stirred at 50° C. for about 24 hours. […] Subsamples (50 μL) of the solutions were extracted for HPLC analysis after 2, 4, 6, and 23 hours of stirring at 50° C.

[2] = pH solubility studies in buffers and biorelevant media (Example 16); set-up: key: M4: Crystalline Form 4 mono(hydrogen sulfate); Crystalline Form 2 di(hydrogen sulfate) trihydrate; Amorphous; conditions: pH 6.8 (Phosphate), 24 h
Protocol: Example 16—pH Solubility Studies—(1) Crystalline Form 2 Compound 1 di(hydrogen sulfate) trihydrate, (2) Crystalline Form 3 Compound 1 di(hydrogen sulfate), and (3) Crystalline Form 4 Compound 1 mono(hydrogen sulfate): pH solubility studies were carried out on the prepared crystalline Form 2 Compound 1 di(hydrogen sulfate) trihydrate, crystalline Form 3 Compound 1 di(hydrogen sulfate) and crystalline Form 4 Compound 1 mono(hydrogen sulfate) in the following media: (1) HCl/KCl, pH 1.2; (2) Acetate, pH 4.5; (3) Phosphate, pH 6.8; (4) FaSSIF; (5) FeSSIF; and (6) FaSSGF. Slurries of the hydrogen sulfate forms were prepared in the appropriate medium and stirred at 25° C. For the experiments in the buffer media, the pH of the slurry samples was measured and adjusted as required after 1 hour and 23 hours of the slurrying. Additional solid was added where dissolution was observed post-adjustment. The pH of the samples in the biorelevant media was measured at the 23 hour timepoint. No pH adjustment was made for the biorelevant media. After a total of 24 hours of slurrying, the mother liquors were extracted via centrifugation, and the concentrations and solution purity were determined by HPLC. The residual solids were isolated and analyzed by XRPD and are shown in FIG. 77, FIG. 78, and FIG. 79. The assessment was repeated for some of the samples, where required.

[3] = particle size distribution (Mastersizer 2000)
Protocol: In Example 5, the particle size distribution of solids was measured using a Mastersizer 2000 instrument and the method is detailed below.

[4] = thermodynamic solubility in 8 aqueous media (Example 19); conditions: for solubility in aqueous media: 24 hours at 37° C.
Protocol: UPLC System—UPLC: ThermoFisher Vanquish, Detector 1: UV detector set at 266 nm
UPLC Conditions— • Auto sampler temp.: RT • Column: Agilent Eclipse Plus C18 HD (50×2.1 mm; 1.8 μm) • Column temp: 40° C. • Gradient: Mobile phase A: 10 mM ammonium acetate in water • Mobile phase B: Acetonitrile • Flow: 0.6 mL/min • Gradient:
• Concentration: ca. 1.0 mg/mL • Solvent: ACN/water 50:50 • Injection volume: 1 μl • Retention time: 2.9 min
Example 19-Solubility of Crystalline Form 2 Compound 1 di(hydrogen sulfate) trihydrate: The thermodynamic solubility of crystalline Form 2 Compound 1 di(hydrogen sulfate) trihydrate was determined in 8 aqueous media (0.1M HCl, Phthalate buffer pH 3, acetate buffer pH 4.2, phosphate buffer pH 7, phosphate buffer pH 7.4, alkaline borate buffer pH 9.0, purified water EP/USP and phosphate water pH 12). Buffer solutions were prepared according to the United States Pharmacopeia USP 43 with modified buffer strength. Suspensions were prepared by addition of a single aliquot of the aqueous medium to the crystalline Form 2 Compound 1 di(hydrogen sulfate) trihydrate. The pH was titrated to the targeted pH with 1M NaOH. After incubation for 24 hours at 37° C., the pH was measured, and the mother liquors were filtered and analyzed by UPLC to determine the concentration of the free base. The residual solids after the solubility determination were ambient- and vacuum dried and analyzed by HT-XRPD.

[5] = 1-propanol:water (80:20% v/v), 50° C., Acid Equiv. 1.90
[6] = 1-propanol:water (80:20% v/v), 50° C., Acid Equiv. 1.95
[7] = 1-propanol:water (80:20% v/v), 50° C., Acid Equiv. 2.00
[8] = 1-propanol:water (80:20% v/v), 50° C., Acid Equiv. 2.05
[9] = 1-propanol:water (80:20% v/v), 50° C., Acid Equiv. 2.10
[10] = After complete equilibration, 3 days post-drying (moisture content = 6.07%)
[11] = Before complete equilibration, 24 hr post-drying (moisture content = 4.33%)

## COc1cc(C(=O)O[C@@H]2CCCOc3cc(cc(OC)c3OC)C(=O)NCCCN3CCCN(CC2)CC3)cc(OC)c1OC [Compound 1 di(hydrogen sulfate)]
[1]; 1-propanol:water (80:20% v/v), 50° C.
  lowering of purity at the T23h timepoint versus earlier samples: about 0.8 % area
[1]; 1-propanol:water (80:20% v/v), 50° C., 2, 4, 6 and 23 hours
  solution purity: 98.7-99.7 % area
[1]; [5]
  HPLC Conc. T2 h: 176 mg/mL
  HPLC Conc. T4 h: 167 mg/mL
  HPLC Conc. T6 h: 183 mg/mL
  HPLC Conc. T23 h: 164 mg/mL
  HPLC Purity T2 h: 99.70 % area
  HPLC Purity T4 h: 99.67 % area
  HPLC Purity T6 h: 99.58 % area
  HPLC Purity T23 h: 98.94 % area
[1]; [6]
  HPLC Conc. T2 h: 175 mg/mL
  HPLC Conc. T4 h: 169 mg/mL
  HPLC Conc. T6 h: 179 mg/mL
  HPLC Conc. T23 h: 162 mg/mL
  HPLC Purity T2 h: 99.60 % area
  HPLC Purity T4 h: 99.61 % area
  HPLC Purity T6 h: 99.53 % area
  HPLC Purity T23 h: 99.00 % area
[1]; [7]
  HPLC Conc. T2 h: 170 mg/mL
  HPLC Conc. T4 h: 165 mg/mL
  HPLC Conc. T6 h: 169 mg/mL
  HPLC Conc. T23 h: 170 mg/mL
  HPLC Purity T2 h: 99.66 % area
  HPLC Purity T4 h: 99.58 % area
  HPLC Purity T6 h: 99.43 % area
  HPLC Purity T23 h: 98.78 % area
[1]; [8]
  HPLC Conc. T2 h: 166 mg/mL
  HPLC Conc. T4 h: 165 mg/mL
  HPLC Conc. T6 h: 173 mg/mL
  HPLC Conc. T23 h: 165 mg/mL
  HPLC Purity T2 h: 99.68 % area
  HPLC Purity T4 h: 99.52 % area
  HPLC Purity T6 h: 99.42 % area
  HPLC Purity T23 h: 98.85 % area
[1]; [9]
  HPLC Conc. T2 h: 166 mg/mL
  HPLC Conc. T4 h: 164 mg/mL
  HPLC Conc. T6 h: 168 mg/mL
  HPLC Conc. T23 h: 167 mg/mL
  HPLC Purity T2 h: 99.60 % area
  HPLC Purity T4 h: 99.62 % area
  HPLC Purity T6 h: 99.47 % area
  HPLC Purity T23 h: 98.89 % area
[1]; 1-propanol:water solvent system at 50° C.
  overall solution stability: substantial stability
[1]; input free base concentration 186 mg/mL, 50° C.
  concentration of the solutions by HPLC: 162000 to 183000 µg/mL

## CCCN1CCNCCCNC(=O)c2cc(OC)c(OC)c(c2)OCCC[C@@H](OC(=O)c2cc(OC)c(OC)c(OC)c2)CC1
[2]; attempt 1, 25° C.
  XRPD of residual solids: A
[2]; attempt 2, 25° C.
  XRPD of residual solids: A
[3]; [10]
  D10: 6.32 μm
  D50: 32.90 μm
  D90: 84.73 μm
[3]; [11]
  D10: 17.596 μm
  D50: 46.785 μm
  D90: 109.799 μm
[4]
  solubility compared with the free base: more soluble than the free base
[4]; high pH (12.0)
  solubility in aqueous media: very slightly soluble
[4]; low pH values (<3.0)
  solubility in aqueous media: freely soluble
[4]; pH 4.2
  solubility in aqueous media: soluble
[4]; pH 7.0
  solubility in aqueous media: slightly soluble
